The source of these data is patent publication US10894784B2, “Heteroarylbenzimidazole compounds” (BAYER PHARMA AKTIENGESELLSCHAFT, priority 2015, dated 2021).

The target in one experiment is TBK1 (Homo sapiens (Human), UniProt Q9UHD2). The experiment is described as follows: TBK1 low ATP kinase assay (in vitro assay 1). Type of experiment: biochemical. To be noted: TBK1 low ATP kinase assay IC50, in vitro assay 1.
Chain of TBK1 (Q9UHD2 whole entry): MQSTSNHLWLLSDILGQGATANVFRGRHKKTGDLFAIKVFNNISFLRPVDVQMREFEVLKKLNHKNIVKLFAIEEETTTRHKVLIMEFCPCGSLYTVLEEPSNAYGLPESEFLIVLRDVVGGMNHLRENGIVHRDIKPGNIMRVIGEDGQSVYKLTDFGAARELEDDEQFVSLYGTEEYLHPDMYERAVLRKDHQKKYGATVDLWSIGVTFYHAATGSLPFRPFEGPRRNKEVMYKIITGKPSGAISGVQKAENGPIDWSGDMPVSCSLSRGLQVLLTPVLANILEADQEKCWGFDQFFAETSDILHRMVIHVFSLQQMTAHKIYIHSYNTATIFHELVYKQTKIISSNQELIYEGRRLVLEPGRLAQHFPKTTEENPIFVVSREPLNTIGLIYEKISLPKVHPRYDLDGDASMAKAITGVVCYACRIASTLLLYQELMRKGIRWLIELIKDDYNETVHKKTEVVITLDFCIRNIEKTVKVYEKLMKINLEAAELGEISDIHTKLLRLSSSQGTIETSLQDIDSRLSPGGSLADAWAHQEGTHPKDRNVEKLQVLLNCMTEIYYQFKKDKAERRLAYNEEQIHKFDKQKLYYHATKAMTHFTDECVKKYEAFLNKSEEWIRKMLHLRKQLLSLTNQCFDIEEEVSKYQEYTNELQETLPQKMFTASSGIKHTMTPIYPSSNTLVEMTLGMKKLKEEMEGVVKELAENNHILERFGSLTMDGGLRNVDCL
Consider `Cc1noc(-c2ccc3nc(Nc4cc(C(C)N5CCN(C(=O)CC(F)(F)F)CC5)ccn4)[nH]c3c2)n1` (single isomer, unassigned) [Example 16.06.02.A, 3,3,3-trifluoro-1-{4-[(1R or 1S)-1-(2-{[6-(3-methyl-1,2,4-oxadiazol-5-yl)-1H-benzimidazol-2-yl]amino}pyridin-4-yl)ethyl]piperazin-1-yl}propan-1-one], for which 0.105 µM corresponded to half-maximal inhibition (IC50).

The experiment is the same for the next values; noted with them: in vitro assay 1, read-out: TBK1 low ATP kinase assay IC50.
`Cn1ccc(-c2ccc3nc(Nc4cc(CN5CCN(C(=O)CC(F)(F)F)CC5)ccn4)[nH]c3c2)n1` [Example 40.01, 3,3,3-trifluoro-1-{4-[(2-{[6-(1-methyl-1H-pyrazol-3-yl)-1H-benzimidazol-2-yl]amino}pyridin-4-yl)methyl]piperazin-1-yl}propan-1-one]: the IC50 stood at 1.13 µM.
Same read-out and setting: with `CC(c1ccnc(Nc2nc3ccc(-c4ccnn4C(C)C)cc3[nH]2)c1)N1CCN(C(=O)CC(F)(F)F)CC1` (single isomer, unassigned) [Example 72.02, 3,3,3-trifluoro-1-(4-{(1R or 1S)-1-[2-({6-[1-(propan-2-yl)-1H-pyrazol-5-yl]-1H-benzimidazol-2-yl}amino)pyridin-4-yl]ethyl}piperazin-1-yl)propan-1-one] the figure was 0.25 µM.
The same measure, in the same setting: in the case of `Cc1nccc(-c2ccc3nc(Nc4cc(CN5CCN(C(=O)C6CC6)CC5)cc(C(F)(F)F)n4)[nH]c3c2)n1` [Example 24.03.01, cyclopropyl(4-{[2-{[6-(2-methylpyrimidin-4-yl)-1H-benzimidazol-2-yl]amino}-6-(trifluoromethyl)pyridin-4-yl]methyl}piperazin-1-yl)methanone] it was 0.478 µM.
On the same count and under the same terms, in the case of `O=C(C1CC1)N1CCN(Cc2ccnc(Nc3nc4ccc(-c5ccnc(F)c5)cc4[nH]3)c2)CC1` [Example 137.03, cyclopropyl{4-[(2-{[6-(2-fluoropyridin-4-yl)-1H-benzimidazol-2-yl]amino}pyridin-4-yl)methyl]piperazin-1-yl}methanone] it was 0.02 µM; in that of `CC(c1ccnc(Nc2nc3ccc(-c4cnn(CC5CC5(C)C)c4)cc3[nH]2)c1)N1CCN(C(=O)CC(F)(F)F)CC1` (single isomer, unassigned) [Example 67.02, 1-{4-[(1R or 1S)-1-(2-{[6-(1-{[(1RS)-2,2-dimethylcyclopropyl]methyl}-1H-pyrazol-4-yl)-1H-benzimidazol-2-yl]amino}pyridin-4-yl)ethyl]piperazin-1-yl}-3,3,3-trifluoropropan-1-one], 0.0029 µM; in that of `Nc1cc(-c2ccc3nc(Nc4cc(CN5CCN(C(=O)C6CC6)CC5)ccn4)[nH]c3c2)ccn1` [Example 138.03, {4-[(2-{[6-(2-aminopyridin-4-yl)-1H-benzimidazol-2-yl]amino}pyridin-4-yl)methyl]piperazin-1-yl}(cyclopropyl)methanone], 0.0043 µM.
With `COc1cnccc1-c1ccc2nc(Nc3cc(CN4CCN(C(=O)C5CCC5)CC4)ccn3)[nH]c2c1` [Example 04.04, cyclobutyl{4-[(2-{[6-(3-methoxypyridin-4-yl)-1H-benzimidazol-2-yl]amino}pyridin-4-yl)methyl]piperazin-1-yl}methanone], the IC50 is 0.0224 µM.
Take `COc1nnccc1-c1ccc2nc(Nc3cc(CN4CCN(C(=O)C5CC5)CC4)ccn3)[nH]c2c1` [Example 46.01, cyclopropyl{4-[(2-{[6-(3-methoxypyridazin-4-yl)-1H-benzimidazol-2-yl]amino}pyridin-4-yl)methyl]piperazin-1-yl}methanone]: the 50% inhibitory concentration (IC50) was determined as 0.0325 µM.
Same read-out and setting: in the case of `COc1cc(-c2ccc3nc(Nc4cc(CN5CCN(C(=O)CC6CC6)CC5)ccn4)[nH]c3c2)ccn1` [Example 02.05, 2-cyclopropyl-1-{4-[(2-{[6-(2-methoxypyridin-4-yl)-1H-benzimidazol-2-yl]amino}pyridin-4-yl)methyl]piperazin-1-yl}ethanone] it was 0.0498 µM; in that of `CC(c1ccnc(Nc2nc3ccc(-c4cnn(CC5CC(F)(F)C5)c4)cc3[nH]2)c1)N1CCN(C(=O)C2CC2)CC1` (single isomer, unassigned) [Example 169.03, cyclopropyl{4-[(1R or 1S)-1-{2-[(6-{1-[(3,3-difluorocyclobutyl)methyl]-1H-pyrazol-4-yl}-1H-benzimidazol-2-yl)amino]pyridin-4-yl}ethyl]piperazin-1-yl}methanone], 0.0166 µM.
Still for that read-out and setting: in the case of `Cc1cc(-c2ccc3nc(Nc4cc(CN5CCN(C(=O)CC(F)(F)F)CC5)ccn4)[nH]c3c2)nc(C)n1` [Example 31.01, 1-{4-[(2-{[6-(2,6-dimethylpyrimidin-4-yl)-1H-benzimidazol-2-yl]amino}pyridin-4-yl)methyl]piperazin-1-yl}-3,3,3-trifluoropropan-1-one] it was 0.0868 µM.
The same measure, in the same setting: in the case of `CC(c1ccnc(Nc2nc3ccc(-c4cc(N(C)C)ncn4)cc3[nH]2)c1)N1CCN(C(=O)C2CC2)CC1` (single isomer, unassigned) [Example 100.03, cyclopropyl(4-{(1R or 1S)-1-[2-({6-[6-(dimethylamino)pyrimidin-4-yl]-1H-benzimidazol-2-yl}amino)pyridin-4-yl]ethyl}piperazin-1-yl)methanone] it was 0.002 µM; in that of `CC(c1ccnc(Nc2nc3ccc(-c4cc(OCC(C)(F)F)ncn4)cc3[nH]2)c1)N1CCN(C(=O)CC(F)(F)F)CC1` (single isomer, unassigned) [Example 165.02, 1-(4-{(1R or 1S)-1-[2-({6-[6-(2,2-difluoropropoxy)pyrimidin-4-yl]-1H-benzimidazol-2-yl}amino)pyridin-4-yl]ethyl}piperazin-1-yl)-3,3,3-trifluoropropan-1-one], 0.00171 µM; in that of `Cc1nccc(-c2ccc3nc(Nc4cc(C(C)N5CCN(C(=O)CC6CC6)CC5)ccn4)[nH]c3c2)n1` (single isomer, unassigned) [Example 24.05.03.B, 2-cyclopropyl-1-{4-[(1S or 1R)-1-(2-{[6-(2-methylpyrimidin-4-yl)-1H-benzimidazol-2-yl]amino}pyridin-4-yl)ethyl]piperazin-1-yl}ethanone], 0.0138 µM.
As to `O=C(CC(F)(F)F)N1CCN(Cc2ccnc(Nc3nc4ccc(-c5cc(N6CCCC6)ncn5)cc4[nH]3)c2)CC1` [Example 93.01, 3,3,3-trifluoro-1-(4-{[2-({6-[6-(pyrrolidin-1-yl)pyrimidin-4-yl]-1H-benzimidazol-2-yl}amino)pyridin-4-yl]methyl}piperazin-1-yl)propan-1-one], the IC50 was determined as 0.0023 µM.
Same read-out and setting: with `Cc1noc(-c2ccc3nc(Nc4cc(CN5CCN(C(=O)CC6CC6)C[C@H]5C)ccn4)[nH]c3c2)n1` [Example 16.03.03, 2-cyclopropyl-1-{(3R)-3-methyl-4-[(2-{[6-(3-methyl-1,2,4-oxadiazol-5-yl)-1H-benzimidazol-2-yl]amino}pyridin-4-yl)methyl]piperazin-1-yl}ethanone] the figure was 0.067 µM; with `CC(C)Oc1cc(-c2ccc3nc(Nc4cc(CN5CCN(C(=O)C6CC6)CC5)ccn4)[nH]c3c2)ncn1` [Example 160.03, cyclopropyl(4-{[2-({6-[6-(propan-2-yloxy)pyrimidin-4-yl]-1H-benzimidazol-2-yl}amino)pyridin-4-yl]methyl}piperazin-1-yl)methanone], 0.0085 µM; with `Cc1cccc(N2CCN(Cc3ccnc(Nc4nc5ccc(-c6nc(C)no6)cc5[nH]4)c3)CC2)n1` [Example 101.19, 6-(3-methyl-1,2,4-oxadiazol-5-yl)-N-(4-{[4-(6-methylpyridin-2-yl)piperazin-1-yl]methyl}pyridin-2-yl)-1H-benzimidazol-2-amine], 0.34 µM.
On the same count and under the same terms, with `CC(C)Nc1ncnc(-c2ccc3nc(Nc4cc(CN5CCN(C(=O)OC(C)(C)C)CC5)ccn4)[nH]c3c2)c1F` [Example 193.01, tert-butyl 4-{[2-({6-[5-fluoro-6-(propan-2-ylamino)pyrimidin-4-yl]-1H-benzimidazol-2-yl}amino)pyridin-4-yl]methyl}piperazine-1-carboxylate] the figure was 0.0421 µM; with `COCc1cc(-c2ccc3nc(Nc4cc(CN5CCN(C(=O)C6(C(F)(F)F)CC6)CC5)ccn4)[nH]c3c2)ncn1` [Example 79.03, (4-{[2-({6-[6-(methoxymethyl)pyrimidin-4-yl]-1H-benzimidazol-2-yl}amino)pyridin-4-yl]methyl}piperazin-1-yl)[1-(trifluoromethyl)cyclopropyl]methanone], 0.0033 µM; with `COc1nccc(-c2ccc3nc(Nc4cc(CN5CCN(C(=O)CC(F)(F)F)CC5)ccn4)[nH]c3c2)n1` [Example 25.01.04, 3,3,3-trifluoro-1-{4-[(2-{[6-(2-methoxypyrimidin-4-yl)-1H-benzimidazol-2-yl]amino}pyridin-4-yl)methyl]piperazin-1-yl}propan-1-one], 0.079 µM.
In the case of `CCNc1cc(-c2ccc3nc(Nc4cc(CN5CCN(C(=O)OC(C)(C)C)CC5)ccn4)[nH]c3c2)ncn1` [Example 149.01, tert-butyl 4-{[2-({6-[6-(ethylamino)pyrimidin-4-yl]-1H-benzimidazol-2-yl}amino)pyridin-4-yl]methyl}piperazine-1-carboxylate], the IC50 came to 0.0047 µM.
Take `CC(C)(C)OC(=O)N1CCN(Cc2ccnc(Nc3nc4ccc(-c5ccnc(F)c5)cc4[nH]3)c2)CC1` [Example 137.01, tert-butyl 4-[(2-{[6-(2-fluoropyridin-4-yl)-1H-benzimidazol-2-yl]amino}pyridin-4-yl)methyl]piperazine-1-carboxylate]: the IC50 was determined as 0.013 µM.
On to `CC(C)c1cc(-c2ccc3nc(Nc4cc(CN5CCN(C(=O)C6CC6)CC5)ccn4)[nH]c3c2)ncn1` [Example 78.02, cyclopropyl(4-{[2-({6-[6-(propan-2-yl)pyrimidin-4-yl]-1H-benzimidazol-2-yl}amino)pyridin-4-yl]methyl}piperazin-1-yl)methanone], for which the IC50 came to 0.015 µM.
In the case of `O=C(C1CC1)N1CCN(Cc2ccnc(Nc3nc4ccc(-c5ccnc(OCC6CC6)n5)cc4[nH]3)c2)CC1` [Example 62.01.04, cyclopropyl(4-{[2-({6-[2-(cyclopropylmethoxy)pyrimidin-4-yl]-1H-benzimidazol-2-yl}amino)pyridin-4-yl]methyl}piperazin-1-yl)methanone], the IC50 is 0.00519 µM.

For orientation: IC50 means the midpoint of a concentration-inhibition curve.
